Results reported in patent US20030099632A1, “Method for preparing a purified matrix metalloproteinase” (priority 2001, published 2003).

Target: T1, MMP-13CD (Homo sapiens, UniProt P45452)
T1 construct: expression of MMP-13 catalytic domain (“MMP-13CD”) in E. coli typically produces a pro form of the enzyme; A-S- dipeptide left from the M-A-S- expression leader (mPro-MMP-13CD); removed by autolysis (N, cleaved yes); made in house
Test: Autolysis of mPro-MMP-13CD / MMP-13CD after addition of a zinc ligand, followed by MALDI-MS
Type: biochemical
Details: added to modified pro form A-S-MMP-13CD
Description: A 1 mL aliquot of the solution obtained in Preparation 3 was thawed and purified by addition of 100 μL of hydroxamic acid to give a solution of purified MMP-13CD, and the solution was stored at 4° C.
Matrix-Assisted Laser Desorption/Ionization Mass Spectrometry (“MALDI”): MALDI mass spectra were acquired on a Bruker Daltonics, Inc (Billerika, Mass.) Reflex-III time-of-flight mass spectrometer operating in linear mode. The instrument has a 3.3-meter flight tube and an adjustable accelerating voltage up to 23 kV in Delayed Extraction mode. Radiation from a Laser Science, Inc. (Newton, Mass.) nitrogen laser (337 nm, 3-nanosecond pulse width) was used to desorb ions from the target. All linear delayed-extraction experiments were performed using an operating voltage of 23.0 kV, an extraction grid voltage of 20.0 kV, a focus voltage of 16.8 kV, and a lens voltage of 9.001 kV. Twenty-five to one hundred-fifty laser shots were averaged for each spectrum with a 5-point Savitsky-Golay smooth applied. […]
Samples of protein were then analyzed by MALDI-MS every day for 5 days. […] The flash-frozen material was stored, then thawed and immediately analyzed. […] The relative peak heights were calculated by dividing the a.i. value for MMP-13CD at m/z 18923 by the a.i. value for the particular impurity. […]

CC(=O)NO [acetohydroxamic acid]
effect on autolysis of MMP-13CD: stabilizes the resulting mature MMP-13CD itself against autolysis
